Results published in patent US10941114B2, “Small molecule lipid II inhibitors” (University Of Maryland, Baltimore, priority 2015, dated 2021).
≈ marks a conversion by molar mass, not a printed value. Structures can show the parent of a compound that is named as a salt. Where two headings read alike, the source gives them in different places. Blank lines part the entries; values can stand above or below the compound they belong to.

Columns and labels:
[1] = Pharmacokinetic study in mice (plasma concentration by LC/MS/MS)
[2] = Maximum Tolerated Dose (MTD) and in vivo toxicity at the MTD; settings: dose-escalation; final MTD
[3] = tested on: HeLa cells; test: Cytotoxicity testing (CC50, MTS assay); settings: HeLa cells
[4] = tested on: Staphylococcus aureus; test: Antibacterial activity assay (MIC, broth dilution); type: cell-based; set-up: S. aureus Killing / Bacterial Killing S. aureus: unit not given here; settings: for MIC: Staphylococcus aureus
[5] = Surface Plasmon Resonance determination of Lipid II binding; settings: SPR; for Lipid II binding affinity: FIG. 16
Procedure: Short-chain water-soluble LII containing a lipid tail of three isoprene units (3-LII) was generated and purified essentially according to methods known in the art. See Breukink et al., Lipid II is an intrinsic component of the pore induced by nisin in bacterial membranes. J. Biol. Chem. 278(22):19898-19903, 2003, the contents of which are hereby incorporated by reference. Typically, M. flavus vesicles (120 μmol lipid-Pi) were incubated together with 500 μmol UDP-GlcNAc, 500 μmol UDP-MurNAC-pentapeptide and 400 μmol farnesyl phosphate in 100 mM Tris-HCl pH 8.0, 5 mM MgCl2. The incubation period was approximately two hours at room temperature for 3-LII (3-P). The synthesis of 3-Lipid II was followed by RP-8 reversed phase TLC (Merck™) developed with 75% methanol. For purification, the membranes were removed by centrifugation at 40,000×g; the supernatant was collected and loaded on a C18 HPLC column and eluted with a linear gradient from 50 mM ammonium bicarbonate to 100% methanol in 30 minutes. Farnesyl-Lipid II (3-Lipid II) eluted at approximately 60% methanol. Its identity was confirmed by mass spectroscopy.
Surface Plasmon Resonance binding experiments were carried out on a BIAcore T100 system (BIAcore™ Inc., Piscataway, N.Y.) at 25° C. The assay buffer was 10 mM HEPES, 150 mM NaCl, 0.05% surfactant P20, pH 7.4 (+3 mM EDTA) supplemented with 10% DMSO. 3-Lipid II (50 RUs) was immobilized on CMS sensor chips using the amine-coupling chemistry recommended by the manufacturer. For initial determination of binding, compounds were introduced into the flow-cells (30.mu·1/min) in the running buffer at 10 μM. Resonance signals were corrected for nonspecific binding by subtracting the background of the control flow-cell. Binding to immobilized 3-LII on the chip surface was determined and scored “yes” in Table 5 when more than 20 Resonance Units or RUs were detected. Detection of less than 20 RUs was scored as “no”, meaning no significant binding to LII. After each analysis, the sensor chip surfaces were regenerated with 50 mM NaOH for 30 seconds at a flow rate 100 μL/min, and equilibrated with the buffer prior to next injection. For binding kinetics studies, binding isotherms were analyzed with manufacturer-supplied software for BIAcore™ T100.

[6] = mouse, in vivo, iv, 10 mg/kg
[7] = tested on: Acinetobacter baumannii; test: Antibacterial activity assay (MIC, broth dilution); type: cell-based; settings: for MIC: Acinetobacter baumannii
Procedure: (§1) Determination of the Minimal Inhibitory Concentrations (MIC) by dilution was carried out by broth dilution according to CLSI standards. See CLSI, Methods for Dilution Antimicrobial Susceptibility Tests for Bacteria That Grow Aerobically; Approved Standard—Eighth Edition. 2009, the contents of which are hereby incorporated by reference. Briefly, the minimum inhibitory concentration MIC, is the lowest concentration of a compound that prevents visible growth of a bacterium, in other words at which it has bacteriostatic activity.
(§2) Compounds were tested for MIC by methods known in the art and described in CLSI, Methods for Dilution Antimicrobial Susceptibility Tests for Bacteria That Grow Aerobically; Approved Standard—Tenth Edition. CLSI document M07-A10. Wayne, Pa.: Clinical and Laboratory Standards Institute, 2015, which is hereby incorporated by reference for these methods.
(§3) Selected compounds also were tested by broth microdilution methods known in the art and described in CLSI, Methods for Dilution Antimicrobial Susceptibility Tests for Bacteria That Grow Aerobically; Approved Standard—Tenth Edition. CLSI document M07-A10. Wayne, Pa.: Clinical and Laboratory Standards Institute, 2015, which is hereby incorporated by reference. Structures of selected compounds in the tables are listed below.

[8] = tested on: Enterococcus faecium; test: Antibacterial activity assay (MIC, broth dilution); type: cell-based
Procedure: as §1
For these tests, cation-adjusted Mueller Hinton broth, containing 10% brain-heart infusion (BHI) was used. Concentrations (MIC) are given in μg/mL. The compound was […].
as §2, §3

[9] = Cytotoxicity testing (CC50, MTS assay); settings: human
[10] = tested on: Pseudomonas aeruginosa; test: Antibacterial activity assay (MIC, broth dilution); type: cell-based; settings: MMX#-ATCC# 103-27853
[11] = tested on: Escherichia coli; test: Antibacterial activity assay (MIC, broth dilution); type: cell-based; settings: MMX#-ATCC# 102.25922
[12] = tested on: Streptococcus pneumoniae; test: Antibacterial activity assay (MIC, broth dilution); type: cell-based
[13] = tested on: Enterococcus faecalis; test: Antibacterial activity assay (MIC, broth dilution); type: cell-based
[14] = single dose of 10 mg/kg by intravenous injection in CD1 mice (n=3)
[15] = single dose of 10 mg/kg by intravenous injection
[16] = S. aureus USA300 (MRSA), average of two replicates
[17] = A. baumannii 2-2-2 (colistin-resistant clinical isolate), average of two replicates
[18] = E. faecium EF1509 (VRE), average of two replicates
[19] = S. aureus USA300 (MRSA), average of two replicates, read-out: MIC SA
[20] = Table 16, CLSI M07-A10 dilution method, read-out: MIC S. aureus
[21] = A. baumannii 2-2-2 (colistin-resistant clinical isolate), average of two replicates, read-out: MIC AB
[22] = Table 16, CLSI M07-A10 dilution method, read-out: MIC A. baumannii
[23] = ATCC 1509 / VRE, text: E. faecium EF1509 (VRE), footnote: Enterococcus faecalis ATCC 1509, average of two replicates, read-out: MIC EF
[24] = Enterococcus faecium, Table 16, CLSI M07-A10 dilution method, read-out: MIC E. faecium
[25] = text: E. faecium EF1509 (VRE), footnote: Enterococcus faecalis ATCC 1509, average of two replicates

Structure (SMILES): CN(CCC#N)c1ccc(/C=C/c2cc(-c3ccc(Br)cc3)cc(-c3ccc(Br)cc3)[n+]2C)cc1.[I-] [Compound 12c]
- AUCInf [1, 14]: 2.137 ± 0.455 µg·h/mL
- AUCextrap [1, 14]: 12.9 ± 5.6%
- Cl3 [1, 14]: 4.82 ± 0.996 L/h/kg
- Cmax [1, 14]: 3.975 ± 0.739 µg/mL
- MRT [1, 14]: 9.13 ± 3.17 h
- T1/2 [1, 14]: 11 ± 2.37 h
- Vss—obs [1, 14]: 46.3 ± 23.3 L/kg
- Maximum Tolerated Dose (MTD) [2]: 40 mg/kg

Structure (SMILES): CN(C)c1ccc(/C=C/c2cc(-c3ccc(Br)cc3)cc(-c3ccc(Br)cc3)[n+]2C2CCCCC2)cc1.[I-] [EL-5]
- CC50 ([3]; exposure 24 hour): 4 mg/L
- AUCextrap [1, 15]: 27.2 ± 1.6%
- AUClast/D [1, 15]: 300 ± 58 ng·h/mL
- MIC SA [4, 16]: 1 mg/L
- Lipid II binding affinity [5]: below micromolar
- AUCInf [6]: 4.125 ± 0.78 µg·h/mL
- Cl—obs [6]: 2.477 ± 0.42 L/h/kg
- MRT [6]: 18.8 ± 1.62 h
- T1/2 [6]: 23.8 ± 0.84 h
- MIC AB [7, 17]: 0.5 mg/L
- MIC EF [8, 18]: 0.25 mg/L

- MIC [7, 21]: 4 mg/L
- MIC [7, 22]: 4 mg/L
Structure (SMILES): CCN(CC)c1ccc(/C=C/c2cc(-c3ccc(Br)cc3)cc(-c3ccc(C)c(C)c3)[n+]2C)cc1.[I-] [Compound 9v, (E)-4-(4-bromophenyl)-2-(4-(diethylamino)styryl)-6-(3,4-dimethylphenyl)-1-methylpyridin-1-ium iodide]
- CC50 at 24 h ([9]; HeLa cells): 5.5 mg/L
- MIC [4, 19]: 2 mg/L
- MIC [4, 20]: 2 mg/L
- MIC [8, 23]: 4 mg/L
- MIC [8, 24]: 4 mg/L

Structure (SMILES): Cc1ccc(/C=C/c2cc(-c3ccc(Br)cc3)cc(-c3ccc(Br)cc3)[n+]2C)cc1.[I-] [EL-11]
- CC50 ([3]; exposure 24 hours): 5 mg/L
- AUCextrap [1, 15]: 12.9 ± 5.6%
- AUClast/D [1, 15]: 185.3 ± 37.3 ng·h/mL
- MIC SA [4, 16]: 1 mg/L
- Lipid II binding affinity [5]: below micromolar
- AUCInf [6]: 2.137 ± 0.455 µg·h/mL
- AUClast/D [6]: 1853 ± 372 mg·h/mL
- Cl—obs [6]: 4.82 ± 0.996 L/h/kg
- MRT [6]: 9.13 ± 3.17 h
- T1/2 [6]: 11 ± 2.37 h
- MIC AB [7, 17]: >64 mg/L
- MIC EF [8, 25]: 4 mg/L

- MIC Pseudomonas aeruginosa [10]: > 64 mg/L
- MIC Escherichia coli [11]: > 64 mg/L
- MIC Streptococcus pneumoniae (PRSP) ([12]; MMX#-ATCC# 884-NA, penicillin-resistant): 2 mg/L (≈ 5.93 µM)
- MIC Streptococcus pneumoniae ([12]; MMX#-ATCC# 1195-49619): 2 mg/L (≈ 5.93 µM)
- MIC Enterococcus faecalis ([13]; MMX#-ATCC# 101-29212): 2 mg/L (≈ 5.93 µM)
- MIC Enterococcus faecalis (VRE) ([13]; MMX#-ATCC# 848-NA, vancomycin-resistant): 2 mg/L (≈ 5.93 µM)
Structure (SMILES): CC(=O)NC[C@H]1CN(c2ccc(N3CCOCC3)c(F)c2)C(=O)O1 [Linezolid, linezolid, reference compound]
- MIC Staphylococcus aureus ([4]; MMX#-ATCC# 100-29213): 4 mg/L (≈ 11.9 µM)
- MIC Staphylococcus aureus (MRSA) ([4]; MMX#-ATCC# 757-NA, methicillin-resistant): 4 mg/L (≈ 11.9 µM)

Structure (SMILES): CN(C)c1ccc(/C=C/c2cc(-c3ccc(Cl)cc3)cc(-c3ccc(Cl)cc3)[o+]2)cc1 [(E)-2,4-bis(4-chlorophenyl)-6-(4-(dimethylamino)styryl)pyrylium boron tetrafluoride salt]
- S. aureus Killing ([4]; anti-bacterial activity (MIC), strain not stated): 32
- Lipid II Binding ([5]; immobilized 3-LII, compounds at 10 μM): yes (scored “yes” in Table 5 when more than 20 Resonance Units or RUs were detected)

- MIC [7, 21]: 16 mg/L
- MIC [7, 22]: 16 mg/L
Structure (SMILES): Cc1ccc(-c2cc(-c3ccc(Cl)cc3)cc(/C=C/c3ccc(N(C)CCO)cc3)[n+]2C)cc1.[I-] [Compound 9p, (E)-4-(4-chlorophenyl)-2-(4-((2-hydroxyethyl)(methyl)amino)styryl)-1-methyl-6-(p-tolyl)pyridin-1-ium iodide]
- CC50 at 24 h ([9]; HeLa cells): 5.5 mg/L
- MIC [4, 19]: 0.25 mg/L
- MIC [4, 20]: 0.25 mg/L
- MIC [8, 23]: 2 mg/L
- MIC [8, 24]: 2 mg/L

Structure (SMILES): Cc1ccc(-c2cc(-c3ccc(Br)cc3)cc(/C=C/c3ccc(N(C)C)cc3)[n+]2C)cc1.[I-] [EL-8]
- CC50 ([3]; exposure 24 hours): 12 mg/L
- AUCextrap [1, 15]: 4.63 ± 0.51%
- AUClast/D [1, 15]: 72.9 ± 17.9 ng·h/mL
- MIC SA [4, 16]: 0.5 mg/L
- Lipid II binding affinity [5]: below micromolar
- AUCInf [6]: 0.764 ± 0.187 µg·h/mL
- AUClast/D [6]: 729 ± 179 mg·h/mL
- MRT [6]: 1.74 ± 0.49 h
- T1/2 [6]: 9.4 ± 1.01 h
- MIC AB [7, 17]: 4 mg/L
- MIC EF [8, 25]: 4 mg/L

Structure (SMILES): CC(C)C[n+]1c(/C=C/c2ccc(N(C)C)cc2)cc(-c2ccc(Br)cc2)cc1-c1ccc(Br)cc1.[I-] [EL-1]
- CC50 ([3]; exposure 24 hour): 5 mg/L
- MIC SA [4, 16]: 0.5 mg/L
- Lipid II binding affinity [5]: below micromolar
- AUCInf [6]: 1.528 ± 0.286 µg·h/mL
- AUCextrap [6]: 5.15 ± 1.28%
- Cl3 [6]: 6.66 ± 1.2 L/h/kg
- Cl—obs [6]: 6.66 ± 1.2 L/h/kg
- MRT [6]: 4.42 ± 0.72 h
- T1/2 [6]: 8.33 ± 0.84 h
- MIC AB [7, 17]: 4 mg/L
- MIC EF [8, 18]: 1 mg/L
- Maximum Tolerated Dose (MTD) [2]: 25 mg/kg

Structure (SMILES): Cc1ccc(-c2cc(-c3ccc(Br)cc3)cc(/C=C/c3ccc(N(C)C)cc3)[n+]2C)c(C)c1.[I-] [Compound 9s, (E)-4-(4-bromophenyl)-2-(4-(dimethylamino)styryl)-6-(2,4-dimethylphenyl)-1-methylpyridin-1-ium iodide]
- CC50 at 24 h [9]: 3.5 mg/L
- MIC [4, 19]: 0.25 mg/L
- MIC [4, 20]: 0.25 mg/L
- MIC [7, 21]: 16 mg/L
- MIC [7, 22]: 16 mg/L
- MIC [8, 23]: 1 mg/L
- MIC [8, 24]: 1 mg/L
